These compounds were tested against T1, human iNOS (Homo sapiens, UniProt P35228) (assay: DAN assay of nitric oxide production (hiNOS)). Settings: enzyme expressed in HEK293 cells transiently transfected with human iNOS.
T1 construct: expressed in transfected cells; host or cells: HEK293
T1 sequence (P35228 whole entry): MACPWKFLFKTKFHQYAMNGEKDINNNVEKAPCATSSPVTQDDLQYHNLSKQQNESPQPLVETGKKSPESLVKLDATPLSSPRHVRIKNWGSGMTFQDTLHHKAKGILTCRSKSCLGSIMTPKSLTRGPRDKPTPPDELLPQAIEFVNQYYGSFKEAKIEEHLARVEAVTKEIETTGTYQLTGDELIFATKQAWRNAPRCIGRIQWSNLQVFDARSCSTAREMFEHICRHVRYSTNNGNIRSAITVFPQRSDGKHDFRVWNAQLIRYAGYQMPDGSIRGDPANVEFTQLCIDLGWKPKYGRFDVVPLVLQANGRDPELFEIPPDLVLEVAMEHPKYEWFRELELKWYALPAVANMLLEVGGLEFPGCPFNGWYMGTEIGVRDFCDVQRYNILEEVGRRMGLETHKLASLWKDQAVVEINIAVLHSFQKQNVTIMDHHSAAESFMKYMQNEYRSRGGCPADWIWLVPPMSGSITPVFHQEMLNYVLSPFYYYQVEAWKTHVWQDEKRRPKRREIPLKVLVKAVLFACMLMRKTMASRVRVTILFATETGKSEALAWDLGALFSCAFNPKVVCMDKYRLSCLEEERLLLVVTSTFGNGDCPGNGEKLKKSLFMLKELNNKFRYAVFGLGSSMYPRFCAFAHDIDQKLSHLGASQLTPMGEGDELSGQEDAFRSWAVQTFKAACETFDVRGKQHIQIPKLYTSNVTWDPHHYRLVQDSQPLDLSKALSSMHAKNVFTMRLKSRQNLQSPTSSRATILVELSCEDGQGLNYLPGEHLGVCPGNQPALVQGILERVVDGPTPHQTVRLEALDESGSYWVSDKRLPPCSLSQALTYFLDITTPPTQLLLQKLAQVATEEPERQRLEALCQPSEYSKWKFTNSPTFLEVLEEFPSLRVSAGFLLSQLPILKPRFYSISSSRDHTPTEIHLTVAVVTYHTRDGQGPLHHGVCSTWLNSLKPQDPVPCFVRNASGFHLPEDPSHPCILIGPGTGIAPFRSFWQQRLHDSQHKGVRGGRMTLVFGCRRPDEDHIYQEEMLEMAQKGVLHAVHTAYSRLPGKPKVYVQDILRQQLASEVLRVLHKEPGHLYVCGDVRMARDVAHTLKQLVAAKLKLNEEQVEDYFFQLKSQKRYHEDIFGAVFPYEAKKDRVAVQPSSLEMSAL
Format: cell-based
Description: The source of nitric oxide synthase (NOS) enzyme can be generated in several ways including induction of endogenous iNOS using cytokines and/or lipopolysaccharide (LPS) in various cell types known in the art. Alternatively, the gene encoding the enzyme can be cloned and the enzyme can be generated in cells via heterologous expression from a transient or stable expression plasmid with suitable features for protein expression as are known in the art. Enzymatic activity (nitric oxide production) is calcium independent for iNOS, while the constitutive NOS isoforms, nNOS and eNOS, become active with the addition of various cofactors added to cellular media or extract as are well known in the art. Enzymes specified in Table 1 were expressed in HEK293 cells transiently transfected with human iNOS.
A major metabolic pathway for nitric oxide is to nitrate and nitrite, which are stable metabolites within tissue culture, tissue, plasma, and urine (S Moncada, A Higgs, N Eng J Med 329, 2002 (1993)).
The level of nitrate or nitrite in the specimen can be quantified by any method known in the art which provides adequate sensitivity and reproducibility. A variety of protocols have also been described for detecting and quantifying nitrite and nitrate levels in biological fluids by ion chromatography (e.g., A Everett et al., J. Chromatogr. 706, 437 (1995); J M Monaghan et al., J. Chromatogr. 770, 143 (1997)), high-performance liquid chromatography (e.g., M Kelm et al., Cardiovasc. Res. 41, 765 (1999)), and capillary electrophoresis (MA Friedberg et al., J. Chromatogr. 781, 491 (1997)). For example, 2,3-diaminonaphthalene reacts with the nitrosonium cation that forms spontaneously from NO to form the fluorescent product 1H-naphthotriazole. Using 2,3-diaminonaphthalene (“DAN”), researchers have developed a rapid, quantitative fluorometric assay that can detect from 10 nM to 10 μM nitrite and is compatible with a multi-well microplate format. […] DAN reacts with nitrite ion and gives fluorescent naphthotriazole (MC Carré et al., Analusis 27, 835-838 (1999)). Table 1 provides the test results of various compounds of the subject invention using the DAN assay.
A specimen can be processed prior to determination of nitrate or nitrite as required by the quantification method, or in order to improve the results, or for the convenience of the investigator. For example, processing can involve centrifuging, filtering, or homogenizing the sample. If the sample is whole blood, the blood can be centrifuged to remove cells and the nitrate or nitrite assay performed on the plasma or serum fraction. If the sample is tissue, the tissue can be dispersed or homogenized by any method known in the art prior to determination of nitrate or nitrite. It may be preferable to remove cells and other debris by centrifugation or another method and to determine the nitrate or nitrite level using only the fluid portion of the sample, or the extracellular fluid fraction of the sample. The sample can also be preserved for later determination, for example by freezing of urine or plasma samples. When appropriate, additives may be introduced into the specimen to preserve or improve its characteristics for use in the nitrate or nitrite assay.
The “level” of nitrate, nitrite, or other NO-related product usually refers to the concentration (in moles per liter, micromoles per liter, or other suitable units) of nitrate or nitrite in the specimen, or in the fluid portion of the specimen. However, other units of measure can also be used to express the level of nitrate or nitrite. For example, an absolute amount (in micrograms, milligrams, nanomoles, moles, or other suitable units) can be used, particularly if the amount refers back to a constant amount (e.g., grams, kilograms, milliliters, liters, or other suitable units) of the specimens under consideration. A number of commercially available kits can be used. […]
`Cc1ncsc1C(=O)N(c1cccc(Cl)c1)C(C)c1cc(=O)[nH]c2c(F)cccc12` (racemic) [Example 113, N-(3-Chlorophenyl)-N-(1-(8-fluoro-2-oxo-1,2-dihydroquinolin-4-yl)ethyl)-4-methylthiazole-5-carboxamide] was tested, and the EC50 was no more than 5 µM. `O=C(c1cccnc1)N(Cc1cc(=O)[nH]c2ccccc12)c1ccccc1` [Example 33, N-((2-Oxo-1,2-dihydroquinolin-4-yl)methyl)-N-phenylnicotinamide] showed an EC50 greater than 5 µM. In the case of `COc1ccc(N(Cc2cc(=O)[nH]c3c(F)c(F)ccc23)C(=O)c2scnc2C)cc1Cl` [Example 176, N-(3-Chloro4-methoxylphenyl)-N-((7,8-fluoro-2-oxo-1,2-dihydroquinolin-4-yl)methyl)-4-methylthiazole-5-carboxamide], the EC50 is reported as no more than 5 µM. `O=C(c1cnccn1)N(Cc1cc(=O)[nH]c2c(F)cccc12)c1cccc(Cl)c1` [Example 70, N-(3-Chlorophenyl)-N-((8-fluoro-2-oxo-1,2-dihydroquinolin-4-yl)methyl)pyrazine-2-carboxamide] showed an EC50 greater than 5 µM. `Cc1ncsc1C(=O)N(Cc1cc(=O)[nH]c2ccccc12)c1ccc(F)c(Cl)c1` [Example 39, N-(3-Chloro-4-fluorophenyl)-4-methyl-N-((2-oxo-1,2-dihydroquinolin-4-yl)methyl)thiazole-5-carboxamide] was tested, and the EC50 was greater than 5 µM. `Cc1oncc1C(=O)N(Cc1cc2cccc(F)c2[nH]c1=O)c1cccc(Cl)c1` [Example 173, N-(3-Chlorophenyl)-N-((8-fluoro-2-oxo-1,2-dihydroquinolin-3-yl)methyl)-5-methylisoxazole-4-carboxamide] showed an EC50 greater than 5 µM. `CC(C)c1nn(Cc2cc(=O)[nH]c3c(F)c(F)ccc23)c2ccccc12` [Example 239, 7,8-Difluoro-4-((3-isopropyl-1H-indazol-1-yl)methyl)quinolin-2(1H)-one] was tested, and the EC50 was greater than 5 µM. `O=c1cc(Cn2c(C3CCNCC3)nc3ccccc32)c2ccc(F)c(F)c2[nH]1` [Example 212, 7,8-Difluoro-4-((2-(piperidin-4-yl)-1H-benzo[d]imidazol-1-yl)methyl)quinolin-2(1H)-one] showed an EC50 greater than 5 µM. `Cn1cncc1-c1nc2ccccc2n1Cc1cc(=O)[nH]c2c(F)c(F)ccc12` [Example 122, 7,8-Difluoro-4-((2-(1-methyl-1H-imidazol-5-yl)-1H-benzo[d]imidazol-1-yl)methyl)quinolin-2(1H)-one] showed an EC50 of no more than 5 µM. Compound `Cc1cnc(C(=O)N(Cc2cc(=O)[nH]c3ccccc23)c2ccccc2)cn1` [Example 35, 5-Methyl-N-((2-oxo-1,2-dihydroquinolin-4-yl)methyl)-N-phenylpyrazine-2-carboxamide] has an EC50 of no more than 5 µM. In the case of `Cc1ncsc1C(=O)N(Cc1cc(=O)[nH]c2ccccc12)c1cccc(C(F)(F)F)c1` [Example 40, 4-Methyl-N-((2-oxo-1,2-dihydroquinolin-4-yl)methyl)-N-(3-(trifluoromethyl)phenyl)thiazole-5-carboxamide], the EC50 is reported as greater than 5 µM. With `COc1ccccc1C(=O)N(Cc1cc(=O)[nH]c2c(F)cccc12)c1cccc(Cl)c1` [Example 60, N-(3-Chlorophenyl)-N-((8-fluoro-2-oxo-1,2-dihydroquinolin-4-yl)methyl)-2-methoxybenzamide] the EC50 was greater than 5 µM. `CN(C)c1cccc(C(=O)N(Cc2cc(=O)[nH]c3c(F)cccc23)c2cccc(Cl)c2)c1` [Example 75, N-(3-Chlorophenyl)-3-(dimethylamino)-N-((8-fluoro-2-oxo-1,2-dihydroquinolin-4-yl)methyl)benzamide] showed an EC50 greater than 5 µM. For `Cc1ccc(C)c(-c2nc3ccccc3n2Cc2cc(=O)[nH]c3c(F)c(F)ccc23)c1` [Example 243, 4-((2-(2,5-Dimethylphenyl)-1H-benzo[d]imidazol-1-yl)methyl)-7,8-difluoroquinolin-2(1H)-one], the EC50 was greater than 5 µM. For `O=c1cc(Cn2c(-c3c(F)cccc3F)nc3ccccc32)c2ccc(F)c(F)c2[nH]1` [Example 247, 4-((2-(2,6-Difluorophenyl)-1H-benzo[d]imidazol-1-yl)methyl)-7,8-difluoroquinolin-2(1H)-one], the EC50 was greater than 5 µM. `O=c1cc(Cn2c(-c3ccncc3F)nc3ccccc32)c2ccc(F)c(F)c2[nH]1` [Example 244, 7,8-Difluoro-4-((2-(3-fluoropyridin-4-yl)-1H-benzo[d]imidazol-1-yl)methyl)quinolin-2(1H)-one] gave an EC50 of no more than 5 µM. Work on `CC(C)N(Cc1cc(=O)[nH]c2ccccc12)C(=O)c1ccco1` [Example 9, N-Isopropyl-N-[(2-oxo-1,2-dihydroquinolin-4-yl)methyl]-2-furamide] yielded an EC50 of no more than 5 µM. `COc1cccc(N(Cc2cc(=O)[nH]c3c(F)cccc23)C(=O)c2scnc2C)c1` [Example 262, N-((8-Fluoro-2-oxo-1,2-dihydroquinolin-4-yl)methyl)-N-(3-methoxyphenyl)-4-methylthiazole-5-carboxamide] showed an EC50 of no more than 5 µM. `O=C(c1ccco1)N(Cc1cc(=O)[nH]c2ccccc12)c1cccc(Cl)c1` [Example 14, N-(3-Chlorophenyl)-N-[(2-oxo-1,2-dihydroquinolin-4-yl)methyl]-2-furamide] gave an EC50 greater than 5 µM. In the case of `Cc1ncsc1-c1nc2ccccc2n1Cc1cc(=O)[nH]c2ccccc12` [Example 124, 4-((2-(4-Methylthiazol-5-yl)-1H-benzo[d]imidazol-1-yl)methyl)quinolin-2(1H)-one], the EC50 is reported as no more than 5 µM. `O=C(c1ccccn1)N(Cc1cc(=O)[nH]c2c(F)cccc12)c1cccc(Cl)c1` [Example 67, N-(3-Chlorophenyl)-N-((8-fluoro-2-oxo-1,2-dihydroquinolin-4-yl)methyl)picolinamide] showed an EC50 greater than 5 µM. With `CN(C)Cc1nc2ccccc2n1Cc1cc(=O)[nH]c2c(F)c(F)ccc12` [Example 198, 4-((2-((Dimethylamino)methyl)-1H-benzo[d]imidazol-1-yl)methyl)-7,8-difluoroquinolin-2(1H)-one] the EC50 was greater than 5 µM. `Cc1ccc(C(=O)N(Cc2cc(=O)[nH]c3c(F)cccc23)c2cccc(Cl)c2)cc1` [Example 59, N-(3-Chlorophenyl)-N-((8-fluoro-2-oxo-1,2-dihydroquinolin-4-yl)methyl)-4-methylbenzamide] showed an EC50 greater than 5 µM. Compound `O=c1cc(Cn2c(Cl)nc3ccccc32)c2ccc(F)c(F)c2[nH]1` [Example 203, 4-((2-Chloro-1H-benzo[d]imidazol-1-yl)methyl)-7,8-difluoroquinolin-2(1H)-one] has an EC50 greater than 5 µM. With `Cc1cnccc1-c1nc2ccccc2n1Cc1cc(=O)[nH]c2c(F)c(F)ccc12` [Example 199, 7,8-Difluoro-4-((2-(3-methylpyridin-4-yl)-1H-benzo[d]imidazol-1-yl)methyl)quinolin-2(1H)-one] the EC50 was no more than 5 µM. Work on `CC(C)c1ncc(-c2ccccc2)n1Cc1cc(=O)[nH]c2c(F)c(F)ccc12` [Example 255, 7,8-Difluoro-4-((2-isopropyl-5-phenyl-1H-imidazol-1-yl)methyl)quinolin-2(1H)-one] yielded an EC50 greater than 5 µM. Work on `O=C(c1ccc2ccccc2c1)N(Cc1cc(=O)[nH]c2c(F)cccc12)c1cccc(Cl)c1` [Example 83, N-(3-Chlorophenyl)-N-((8-fluoro-2-oxo-1,2-dihydroquinolin-4-yl)methyl)-2-naphthamide] yielded an EC50 greater than 5 µM. In the case of `Cc1nnsc1C(=O)N(Cc1cc(=O)[nH]c2c(F)c(F)ccc12)c1cccc(Cl)c1` [Example 110, N-(3-Chlorophenyl)-N-((7,8-difluoro-2-oxo-1,2-dihydroquinolin-4-yl)methyl)-4-methyl-1,2,3-thiadiazole-5-carboxamide], the EC50 is reported as no more than 5 µM. `CCC(=O)N(Cc1cc(=O)[nH]c2ccccc12)c1ccccc1` [Example 4, N-((2-Oxo-1,2-dihydroquinolin-4-yl)methyl)-N-phenylpropionamide] was tested, and the EC50 was greater than 5 µM. Work on `Cn1nccc1C(=O)N(Cc1cc(=O)[nH]c2c(F)c(F)ccc12)c1cccc(Cl)c1` [Example 112, N-(3-Chlorophenyl)-N-((7,8-difluoro-2-oxo-1,2-dihydroquinolin-4-yl)methyl)-1-methyl-1H-pyrazole-5-carboxamide] yielded an EC50 greater than 5 µM.

From patent publication US20080139558A1, “QUINOLONES USEFUL AS INDUCIBLE NITRIC OXIDE SYNTHASE INHIBITORS” (KALYPSYS, INC., priority 2006, published 2008)
